By MIC is commonly meant the lowest concentration that inhibits growth of the organism. A high value points to weaker potency. A word on the Kd: it is the concentration at which binding is half-saturated. High values mean lower affinity, low ones higher affinity.

Assay [1] relates to Staphylococcus aureus. Briefly: Antibacterial activity against vancomycin A-resistant Staphylococcus aureus VRS2. The assay is classed as functional.
The subject of assay [2] is Enterococcus faecium. Briefly: Antibacterial activity against vancomycin-susceptible Enterococcus faecium SR-16972. To be noted: SR16972. The assay is classed as functional.
The test system of assay [3] is Enterococcus faecalis. Kind of assay: Antibacterial activity against vancomycin A-resistant Enterococcus faecalis SR-7914. The assay is classed as functional. The settings on record: SR7914.
Assay [4] concerns Enterococcus faecalis. Briefly: Antibacterial activity against vancomycin-susceptible Enterococcus faecalis SR1004. Format: functional.
Assay [5] has as its system Enterococcus faecalis. Kind of assay: Antibacterial activity against vancomycin B-resistant Enterococcus faecalis SR-23630. Format: functional. The settings on record: SR23630.
Assay [6] can be described thus: Binding affinity to 8-Amino-octanoyl-D-Ala-D-Ala peptide by surface plasmon resonance.
In assay [7] the test system is Enterococcus faecium. Briefly: Antibacterial activity against vancomycin B-resistant Enterococcus faecium SR-23598. Format: functional. To be noted: SR23598.
The subject of assay [8] is Enterococcus faecium. Briefly: Antibacterial activity against vancomycin A-resistant Enterococcus faecium SR-7940. The assay is classed as functional. To be noted: SR7940.
Assay [9] deals with Staphylococcus aureus. Briefly: Antibacterial activity against methicillin-resistant vancomycin-susceptible Staphylococcus aureus SR-3637. Format: functional. To be noted: SR3637.
In assay [10] the test system is Staphylococcus aureus. Kind of assay: Antibacterial activity against vancomycin-susceptible Staphylococcus aureus RN4220. Format: functional.

≈ marks a conversion by molar mass, not a printed value. Some results are limits rather than exact numbers.

As to `CCCCCC/C=C/c1cc2ccc1Oc1cc3cc(c1O[C@@H]1O[C@H](CO)[C@@H](O)[C@H](O)[C@H]1O[C@H]1C[C@](C)(N)[C@H](O)[C@H](C)O1)Oc1ccc(cc1/C=C/CCCCCC)[C@@H](O)[C@@H](NC(=O)[C@@H](CC(C)C)NC)C(=O)N[C@@H](CC(N)=O)C(=O)N[C@H]3C(=O)N[C@H]1C(=O)N[C@H](C(=O)N[C@H](C(=O)O)c3cc(O)cc(O)c3-c3cc1ccc3O)[C@@H]2O`, the MIC against Staphylococcus aureus [1] is greater than 64 µg/mL; with Enterococcus faecium [2], 32 µg/mL (≈ 20 µM); against Enterococcus faecalis [3], greater than 64 µg/mL; with Enterococcus faecalis [4], 32 µg/mL (≈ 20 µM); in the assay on Enterococcus faecalis [5] it was greater than 64 µg/mL; with Enterococcus faecium [7], greater than 64 µg/mL. For the same compound, the MIC is greater than 64 µg/mL with Enterococcus faecium [8], 64 µg/mL (≈ 40 µM) against Staphylococcus aureus [9] and 32 µg/mL (≈ 20 µM) against Staphylococcus aureus [10]. Besides, the affinity in assay [6], expressed as Kd, was 11.6 µM.

As for `CCCCCC/C=C/c1cc2ccc1Oc1cc3cc(c1O[C@@H]1O[C@H](CO)[C@@H](O)[C@H](O)[C@H]1O[C@H]1C[C@](C)(N)[C@H](O)[C@H](C)O1)Oc1ccc(cc1Cl)[C@@H](O)[C@@H](NC(=O)[C@@H](CC(C)C)NC)C(=O)N[C@@H](CC(N)=O)C(=O)N[C@H]3C(=O)N[C@H]1C(=O)N[C@H](C(=O)N[C@H](C(=O)O)c3cc(O)cc(O)c3-c3cc1ccc3O)[C@@H]2O`, the MIC is greater than 64 µg/mL against Staphylococcus aureus [1]; 2 µg/mL (≈ 1.31 µM) in the assay on Enterococcus faecium [2]; greater than 64 µg/mL in the assay with Enterococcus faecalis [3]; 2 µg/mL (≈ 1.31 µM) with Enterococcus faecalis [4]; greater than 64 µg/mL against Enterococcus faecalis [5]; greater than 64 µg/mL in the assay with Enterococcus faecium [7]. Besides, the MIC is greater than 64 µg/mL against Enterococcus faecium [8], 2 µg/mL (≈ 1.31 µM) in the assay with Staphylococcus aureus [9] and 1 µg/mL (≈ 0.656 µM) with Staphylococcus aureus [10]. In addition, the Kd in assay [6] turned out to be 3.77 µM.

The record behind these values is ChEMBL document CHEMBL1155426, “Discovery of a novel series of semisynthetic vancomycin derivatives effective against vancomycin-resistant bacteria” (J Med Chem, 2010).
